Patent publication US10894792B2, “Pesticidally active heterocyclic derivatives with sulfur containing substituents” (SYNGENTA PARTICIPATIONS AG, priority 2017, dated 2021)

What was measured:
Plutella xylostella = assay: Activity against Plutella xylostella (diamond back moth), artificial diet; type: in vivo; settings: 120 h, application rate of 200 ppm, L2 larvae on artificial diet, 5 days after infestation, read-out: effect in at least one of the two categories (mortality or growth inhibition)
Description: (§1) 24-well microtiter plates with artificial diet were treated with aqueous test solutions prepared from 10′000 ppm DMSO stock solutions by pipetting. After drying, the plates were infested with L2 larvae (10 to 15 per well). The samples were assessed for mortality and growth inhibition in comparison to untreated samples 5 days after infestation.

Myzus persicae [1] = assay: Activity against Myzus persicae (green peach aphid), sprayed sunflower leaf discs; type: in vivo; settings: foliar, 144 h, application rate of 200 ppm, aphid population of mixed ages, 6 days after infestation
Description: (§2) Sunflower leaf discs were placed on agar in a 24-well microtiter plate and sprayed with aqueous test solutions prepared from 10′000 ppm DMSO stock solutions. After drying, the leaf discs were infested with an aphid population of mixed ages. The samples were assessed for mortality 6 days after infestation.

Myzus persicae [2] = assay: Activity against Myzus persicae (green peach aphid), roots of pea seedlings in test solution; type: in vivo; settings: 144 h, test rate of 24 ppm, roots of infested pea seedlings in test solution, 6 days
Description: Roots of pea seedlings infested with an aphid population of mixed ages were placed directly in the aqueous test solutions prepared from 10′000 DMSO stock solutions. The samples were assessed for mortality 6 days after placing seedlings in test solutions.

[3] = test system: Frankliniella occidentalis; assay: Activity against Frankliniella occidentalis (western flower thrips); type: in vivo; settings: foliar, 168 h, application rate of 200 ppm, sprayed sunflower leaf discs, population of mixed ages, 7 days after infestation
Description: as §2, with “in” for “in a”, “plates” for “plate”, “[…]” for “10′000 ppm”, “drying” for “drying,”, “a Frankliniella” for “an aphid”, “7” for “6”

Bemisia tabaci = assay: Activity against Bemisia tabaci (cotton white fly); type: in vivo; settings: foliar, 144 h, application rate of 200 ppm, sprayed cotton leaf discs, adult white flies, 6 days after incubation
Description: Cotton leaf discs were placed on agar in 24-well microtiter plates and sprayed with aqueous test solutions prepared from 10′000 ppm DMSO stock solutions. After drying the leaf discs were infested with adult white flies. The samples were checked for mortality 6 days after incubation.

Euschistus heros = assay: Activity against Euschistus heros (neotropical brown stink bug); type: in vivo; settings: 120 h, application rate of 200 ppm, sprayed soybean leaf, N-2 nymphs, 5 days after infestation, read-out: effect in at least one of the two categories (mortality or growth inhibition)
Description: Soybean leaf on agar in 24-well microtiter plates were sprayed with aqueous test solutions prepared from 10′000 ppm DMSO stock solutions. After drying the leaf were infested with N-2 nymphs. The samples were assessed for mortality and growth inhibition in comparison to untreated samples 5 days after infestation.

Diabrotica Balteata = assay: Activity against Diabrotica balteata (corn root worm); type: in vivo; settings: 96 h, application rate of 200 ppm, sprayed maize sprouts, L2 larvae, 4 days after infestation, read-out: effect in at least one of the two categories (mortality or growth inhibition)
Description: as §1, with “Maize sprouts placed onto an agar layer in 24-well” for “24-well”, “plates” for “plates with artificial diet”, “spraying.” for “pipetting.”, “(6” for “(10”, “10” for “15”, “4” for “5”

Thrips tabaci = assay: Activity against Thrips tabaci (onion thrips); type: in vivo; settings: foliar, 144 h, application rate of 200 ppm, sprayed sunflower leaf discs, thrips population of mixed ages, 6 days after infestation
Description: as §2, with “in” for “in a”, “plates” for “plate”, “drying” for “drying,”, “a thrips” for “an aphid”

Spodoptera littoralis = assay: Activity against Spodoptera littoralis (Egyptian cotton leaf worm); type: in vivo; settings: foliar, 72 h, application rate of 200 ppm, sprayed cotton leaf discs, L1 larvae, 3 days after infestation, read-out: control (mortality, anti-feeding effect, or growth inhibition)
Description: Cotton leaf discs were placed onto agar in 24-well microtiter plates and sprayed with aqueous test solutions prepared from 10′000 ppm DMSO stock solutions. After drying the leaf discs were infested with five L1 larvae. The samples were assessed for mortality, anti-feeding effect, and growth inhibition in comparison to untreated samples 3 days after infestation. Control of Spodoptera littoralis by a test sample is given when at least one of the categories mortality, anti-feedant effect, and growth inhibition is higher than the untreated sample.

In the case of `CCS(=O)(=O)c1cc(C(=O)N=S(C)(C)=O)cnc1-c1nc2cc(C(F)(F)F)ncc2n1C` [Compound P1, N-[dimethyl(oxo)-λ^6-sulfanylidene]-5-ethylsulfonyl-6-[3-methyl-6-(trifluoromethyl)imidazo[4,5-c]pyridin-2-yl]pyridine-3-carboxamide], the percent effect (mortality or growth inhibition) at 200 ppm (Plutella xylostella) is reported as ≥ 80%, the mortality at 200 ppm (Myzus persicae [1]) is reported as ≥ 80% and the mortality at 24 ppm (Myzus persicae [2]) is reported as ≥ 80%. The mortality at 200 ppm [3] was ≥ 80%, the mortality at 200 ppm (Bemisia tabaci) was ≥ 80% and the percent effect (mortality or growth inhibition) at 200 ppm (Euschistus heros) was ≥ 80%. The percent effect (mortality or growth inhibition) at 200 ppm (Diabrotica Balteata) was ≥ 80% and the mortality at 200 ppm (Thrips tabaci) was ≥ 80%.
In the case of `CCS(=O)(=O)c1cc(C(=O)N=S(C)(C)=O)cnc1-c1cn2cnc(C(F)(F)F)cc2n1` [Compound P4, N-[dimethyl(oxo)-λ^6-sulfanylidene]-5-ethylsulfonyl-6-[7-(trifluoromethyl)imidazo[1,2-c]pyrimidin-2-yl]pyridine-3-carboxamide], the percent effect (mortality or growth inhibition) at 200 ppm (Plutella xylostella) is reported as ≥ 80%, the mortality at 200 ppm (Myzus persicae [1]) is reported as ≥ 80% and the mortality at 24 ppm (Myzus persicae [2]) is reported as ≥ 80%. The mortality at 200 ppm [3] was ≥ 80%, the mortality at 200 ppm (Bemisia tabaci) was ≥ 80% and the percent effect (mortality or growth inhibition) at 200 ppm (Euschistus heros) was ≥ 80%. The percent effect (mortality or growth inhibition) at 200 ppm (Diabrotica Balteata) was ≥ 80% and the percent control (mortality, anti-feedant effect or growth inhibition) at 200 ppm (Spodoptera littoralis) was ≥ 80%.
With `CCS(=O)(=O)c1cc(C(=O)N=S(C)(=O)CC)cnc1-c1nc2cc(C(F)(F)F)ncc2n1C` (stereo not shown) [Compound P8, N-(ethyl-methyl-oxo-λ^6-sulfanylidene)-5-ethylsulfonyl-6-[3-methyl-6-(trifluoromethyl)imidazo[4,5-c]pyridin-2-yl]pyridine-3-carboxamide] the percent effect (mortality or growth inhibition) at 200 ppm (Plutella xylostella) was ≥ 80%, the mortality at 200 ppm (Myzus persicae [1]) was ≥ 80% and the mortality at 24 ppm (Myzus persicae [2]) was ≥ 80%. The mortality at 200 ppm [3] was ≥ 80%, the mortality at 200 ppm (Bemisia tabaci) was ≥ 80% and the percent effect (mortality or growth inhibition) at 200 ppm (Euschistus heros) was ≥ 80%. For the same molecule, the percent effect (mortality or growth inhibition) at 200 ppm (Diabrotica Balteata) was ≥ 80% and the percent control (mortality, anti-feedant effect or growth inhibition) at 200 ppm (Spodoptera littoralis) was ≥ 80%.
In the case of `CCS(=O)(=O)c1cc(C(=O)N=S2(=O)CCC2)cnc1-c1cn2cnc(C(F)(F)F)cc2n1` [Compound P13, 5-ethylsulfonyl-N-(1-oxothietan-1-ylidene)-6-[7-(trifluoromethyl)imidazo[1,2-c]pyrimidin-2-yl]pyridine-3-carboxamide], the percent effect (mortality or growth inhibition) at 200 ppm (Plutella xylostella) is reported as ≥ 80%, the mortality at 200 ppm (Myzus persicae [1]) is reported as ≥ 80% and the mortality at 24 ppm (Myzus persicae [2]) is reported as ≥ 80%. For the same molecule, the percent effect (mortality or growth inhibition) at 200 ppm (Euschistus heros) was ≥ 80%, the percent effect (mortality or growth inhibition) at 200 ppm (Diabrotica Balteata) was ≥ 80% and the percent control (mortality, anti-feedant effect or growth inhibition) at 200 ppm (Spodoptera littoralis) was ≥ 80%.
For `CCS(=O)(=O)c1cc(C(=O)N=S(C)(C)=O)cnc1-c1nc2cc(C(F)(F)F)cnc2n1C` [Compound P14, N-[dimethyl(oxo)-λ^6-sulfanylidene]-5-ethylsulfonyl-6-[3-methyl-6-(trifluoromethyl)imidazo[4,5-b]pyridin-2-yl]pyridine-3-carboxamide], the percent effect (mortality or growth inhibition) at 200 ppm (Plutella xylostella) was ≥ 80%, the mortality at 200 ppm (Myzus persicae [1]) was ≥ 80% and the mortality at 24 ppm (Myzus persicae [2]) was ≥ 80%. For the same molecule, the mortality at 200 ppm [3] was ≥ 80%, the mortality at 200 ppm (Bemisia tabaci) was ≥ 80% and the percent effect (mortality or growth inhibition) at 200 ppm (Euschistus heros) was ≥ 80%. The percent effect (mortality or growth inhibition) at 200 ppm (Diabrotica Balteata) was ≥ 80% and the percent control (mortality, anti-feedant effect or growth inhibition) at 200 ppm (Spodoptera littoralis) was ≥ 80%.
With `CCS(=O)(=O)c1cc(C(=O)N=S(C)(=O)CC)cnc1-c1nc2cc(C(F)(F)F)cnc2n1C` (stereo not shown) [Compound P15, N-(ethyl-methyl-oxo-λ^6-sulfanylidene)-5-ethylsulfonyl-6-[3-methyl-6-(trifluoromethyl)imidazo[4,5-b]pyridin-2-yl]pyridine-3-carboxamide] the percent effect (mortality or growth inhibition) at 200 ppm (Plutella xylostella) was ≥ 80%, the mortality at 200 ppm (Myzus persicae [1]) was ≥ 80% and the mortality at 24 ppm (Myzus persicae [2]) was ≥ 80%. For the same molecule, the mortality at 200 ppm [3] was ≥ 80%, the mortality at 200 ppm (Bemisia tabaci) was ≥ 80% and the percent effect (mortality or growth inhibition) at 200 ppm (Euschistus heros) was ≥ 80%. The percent effect (mortality or growth inhibition) at 200 ppm (Diabrotica Balteata) was ≥ 80% and the percent control (mortality, anti-feedant effect or growth inhibition) at 200 ppm (Spodoptera littoralis) was ≥ 80%.
For `CCS(=O)(=O)c1cc(C(=O)N=S2(=O)CCC2)cnc1-c1nc2cc(C(F)(F)F)cnc2n1C` [Compound P16, 5-ethylsulfonyl-6-[3-methyl-6-(trifluoromethyl)imidazo[4,5-b]pyridin-2-yl]-N-(1-oxothietan-1-ylidene)pyridine-3-carboxamide], the percent effect (mortality or growth inhibition) at 200 ppm (Plutella xylostella) was ≥ 80%, the mortality at 200 ppm (Myzus persicae [1]) was ≥ 80% and the mortality at 24 ppm (Myzus persicae [2]) was ≥ 80%. For the same molecule, the mortality at 200 ppm (Bemisia tabaci) was ≥ 80%, the percent effect (mortality or growth inhibition) at 200 ppm (Euschistus heros) was ≥ 80% and the percent effect (mortality or growth inhibition) at 200 ppm (Diabrotica Balteata) was ≥ 80%. The percent control (mortality, anti-feedant effect or growth inhibition) at 200 ppm (Spodoptera littoralis) was ≥ 80%.
`CCS(=O)(=O)c1cc(C(=O)N=S(C)(=O)CC)cnc1-n1cc2cnc(C(F)(F)F)cc2n1` (stereo not shown) [Compound P25, N-(ethyl-methyl-oxo-λ^6-sulfanylidene)-5-ethylsulfonyl-6-[6-(trifluoromethyl)pyrazolo[4,3-c]pyridin-2-yl]pyridine-3-carboxamide] showed a melting point of 216 to 219 °C.
For `CCS(=O)(=O)c1cc(C(=O)N=S(=O)(CC)CC)cnc1-n1cc2cnc(C(F)(F)F)cc2n1` [Compound P26, N-[diethyl(oxo)-λ^6-sulfanylidene]-5-ethylsulfonyl-6-[6-(trifluoromethyl)pyrazolo[4,3-c]pyridin-2-yl]pyridine-3-carboxamide], the melting point was 185 to 189 °C.
